Results on 12 compounds are retold here after patent US7018989B2, “Chemical compounds” (University College Cardiff Consultants, LTD, priority 1995, dated 2006).

Where two headings read alike, the source gives them in different places.

Data set [1] has as its system III-B strain of HIV-1. As to the kind of experiment: microbe, parasite or virus in culture. The data set is classed as cell-based. The following applies: for EC50: HIV1 in C8166 cells, Table 3, read-out: Activity EC50. The procedure:
(§1) C8166 cells. Cells were grown in RPMI 1640 with 10% calf serum. 4×10^4 cells per microtiter plate well were mixed with 5-fold dilutions of compound prior to addition of 10 CCID50 units of III-B strain of HIV-1 and incubated for 5–7 days (Betbeder et al. Antiviral Chem. Chemother. 1, 241–247, 1990). Formation of syncytia was examined from 2 days post-infection. Culture fluid was collected at 5–7 days and gp120 antigen production measured by ELISA (Mahmood and Hay, J. Immunol. Meth., 151, 9–13, 1992). […] Cell viability of infected and uninfected cells were assessed by the MTT-Formazen method (Pauwels et al. J. Virol. Meth. 20, 309–321, 1988).
(§2) Each assay was carried out in duplicate, on at least two separate occasions, and data quoted are the average of each separate assay.

Data set [2] deals with C8166 cells. Put plainly: Toxicity in C8166 cells (MTT-Formazen). The data set is classed as cell-based. The note with it: Table 3. The procedure:
as §1, §2

Data set [3] deals with HIV-1. Put plainly: Inhibition of HIV-1 in MT4 cells. The data set is classed as cell-based. The following applies: read-out: HIV1 MT4: EC50 for inhibition of HIV-1 in MT4 cells. The procedure:
(§3) Cells were infected with HIV-1 as previously described [Balzarini et al. AIDS (1991), 5, 21–28]. Briefly, 5×10^5 cells per milliliter were infected with HIV-1 or HIV-2 at 100 CCID50 (50% cell culture infective dose) per milliliter of cell suspension. Then 100 μL of the infected cell suspension was transferred to microtiter plate wells and mixed with 100 μL of the appropriate dilutions of the test compounds. After 4 days giant cell formation was recorded microscopically in the HIV-infected cell cultures [CEM], and after 5 days the number of viable cells was determined by trypan blue staining of the HIV-infected cell cultures [MT4].
(§4) The data columns are, in order: • HIV1 MT4: EC50 in μM for inhibition of HIV-1 in MT4 cells. • HIV2 MT4: EC50 in μM for inhibition of HIV-2 in MT4 cells. • CC50 MT4: CC50 in μM for toxicity to MT-4 cells. • HIV1 CEM: EC50 in μM for inhibition of HIV-1 in CEM cells. • HIV2 CEM: EC50 in μM for inhibition of HIV-2 in CEM cells. • HIV2 CEM-TK-: EC50 in μM for inhibition of HIV-2 in CEM/TK^− cells. • CC50 CEM: CC50 in μM for toxicity to CEM cells. • EC50 MSV: EC50 in μM for inhibition of MSV • MCC MSV: Minimum cytotoxic concentration in MSV assay

Data set [4] concerns HIV-2. Put plainly: Inhibition of HIV-2 in MT4 cells. The data set is classed as cell-based. The note with it: read-out: HIV2 MT4: EC50 for inhibition of HIV-2 in MT4 cells. The procedure: as §3, §4
For data set [5], the system named is MT-4 cells. As to the kind of experiment: Toxicity to MT-4 cells. Type of data set: cell-based, human. The note with it: read-out: CC50 MT4: CC50 for toxicity to MT-4 cells. The procedure: as §3, §4
Data set [6] has as its system HIV-1. Put plainly: microbe, parasite or virus in culture. The note with it: read-out: HIV1 CEM: EC50 for inhibition of HIV-1 in CEM cells. In outline:
(§5)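 Trypan blue staining of MT-4 cultures on day 5 gave viable cell numbers; CEM cultures were checked microscopically for giant cells on day 4. Both cell types were infected at 100 CCID50/mL (5×10^5 cells/mL) and incubated with compound dilutions.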

In data set [7] the test system is HIV-2. As to the kind of experiment: Inhibition of HIV-2 in CEM cells (giant cell formation). The following applies: read-out: HIV2 CEM: EC50 for inhibition of HIV-2 in CEM cells. The data set is classed as cell-based. In outline:
as §5

Data set [8] has as its system HIV-2. Put plainly: Inhibition of HIV-2 in CEM/TK- cells. Type of data set: cell-based. In outline: as §5
Data set [9] relates to CEM cells. Put plainly: Toxicity to CEM cells. Type of data set: cell-based, human. The note with it: Table 6; mean of two or more repeat experiments.
The mark [10] stands for this setting: Table 6, mean of two or more repeat experiments.
[11] abbreviates: Table 6, mean of two or more repeat experiments, read-out: HIV2 CEM-TK-: EC50 for inhibition of HIV-2 in CEM/TK^− cells.
[12] abbreviates: CEM/TK- cells, HIV-2, read-out: HIV2 CEM-TK-: EC50 for inhibition of HIV-2 in CEM/TK- cells.

For the compound `CCc1ccc(OP(=O)(N[C@@H](C)C(=O)OC)OCC2C=CC(n3cc(C)c(=O)[nH]c3=O)O2)cc1` (some centres unmarked) [Compound 323, 2′,3′-dideoxy-2′,3′-didehydrothymidine 5′-(p-ethylphenylmethoxyalaninyl) Phosphoramidate], in [1], the “Selectivity CC50/EC50 × 10^3” value is 15.6 × 10^3. For the same compound, the EC50 in [1] is 0.0032 µM; in [3] (setting [10]), 0.057 µM; in data set [4] (setting [10]), 0.063 µM; in data set [6] (setting [10]), 0.07 µM; in data set [7] (setting [10]), 0.16 µM; in data set [8] (setting [11]) it was 0.06 µM. The values for the CC50 in [2], in data set [5] (setting [10]) and in data set [9] were 50 µM, over 100 µM and 60 µM, respectively.
Take `CCCOP(=O)(N[C@@H](C)C(=O)OC)OC[C@@H]1C=C[C@H](n2cc(C)c(=O)[nH]c2=O)O1` (some centres unmarked) [Compound 326]: the EC50 in data set [3] (setting [10]) was 36 µM; in [4] (setting [10]), 84 µM; in data set [6] (setting [10]) it was over 230 µM; in [7] (setting [10]), over 230 µM; in data set [8] (setting [11]), 135 µM. Moreover, the CC50 in data set [5] (setting [10]) is over 250 µM; in data set [9], at least 250 µM.
For `COC(=O)[C@H](C)NP(=O)(OCC1OC(n2cc(C)c(=O)[nH]c2=O)CC1N=[N+]=[N-])Oc1ccccc1` (stereo partly drawn) [Compound 462, 3′-Deoxy-3′-β-azidothymidine 5′-(phenylmethoxylalaninyl) phosphoramidate], the EC50 in data set [3] (MT4 cells, HIV-1) was determined as 33 µM; in data set [4] (MT4 cells, HIV-2), 11 µM; in [6] (CEM cells, HIV-1), 27.5 µM; in data set [7] (CEM cells, HIV-2) it was 40 µM; in [8] (setting [12]), 30 µM. Further, the CC50 in [5] (MT-4 cells) came to 121 µM.
For the compound `COC(=O)C(C)NP(=O)(OCC1OC(n2cc(C)c(=O)[nH]c2=O)CC1N=[N+]=[N-])Oc1cccc(C(F)(F)F)c1` (stereo not drawn) [Compound 536, 3′-Deoxy-3′β-azidothymidine 5′-(m-trifluoromethylphenylmethoxylalaninyl) phosphoramidate], the EC50 was found to be 0.45 µM in [3] (MT4 cells, HIV-1); 0.9 µM in data set [4] (MT4 cells, HIV-2); 1 µM in [6] (CEM cells, HIV-1); 2 µM in [7] (CEM cells, HIV-2); 3 µM in data set [8] (setting [12]). Further, in [5] (MT-4 cells), the CC50 turned out to be 104 µM.
For the compound `COC(=O)[C@H](C)NP(=O)(OCC1OC(n2cc(C)c(=O)[nH]c2=O)CC1N=[N+]=[N-])Oc1cc(Cl)cc(Cl)c1` (stereo partly drawn) [Compound 550, 3′-Deoxy-3′-β-azidothymidine 5′-(3,5-dichlorophenylmethoxylalaninyl) phosphoramidate], the EC50 turned out to be 0.5 µM in data set [3] (MT4 cells, HIV-1); 1 µM in data set [4] (MT4 cells, HIV-2); 1.4 µM in [6] (CEM cells, HIV-1); 3 µM in data set [7] (CEM cells, HIV-2); 12 µM in data set [8] (setting [12]). In [5] (MT-4 cells), the CC50 was 98 µM.
`CCOP(=O)(N[C@@H](C)C(=O)OC)OC[C@@H]1C=C[C@H](n2cc(C)c(=O)[nH]c2=O)O1` (some centres unmarked) [Compound 564]: the EC50 in [3] (setting [10]) is 28.5 µM; in data set [4] (setting [10]), 62.6 µM; in [6] (setting [10]), over 48 µM; in data set [7] (setting [10]), over 240 µM; in [8] (setting [11]), over 48 µM. Moreover, the CC50 in [5] (setting [10]) and in data set [9] was at least 250 µM in each case.
Take `COC(=O)[C@H](C)NP(=O)(OC)OC[C@@H]1C=C[C@H](n2cc(C)c(=O)[nH]c2=O)O1` (some centres unmarked) [Compound 740]: the EC50 in data set [3] (setting [10]) is 25.4 µM; in data set [4] (setting [10]), 50.9 µM; in data set [6] (setting [10]), 20 µM; in data set [7] (setting [10]), 50 µM; in [8] (setting [11]), over 250 µM. Also, the CC50 in data set [5] (setting [10]) and in data set [9] was over 250 µM each time.
`COC(=O)C(C)NP(=O)(OC[C@@H]1C=C[C@H](n2cc(C)c(=O)[nH]c2=O)O1)Oc1c(F)c(F)c(F)c(F)c1F` (some centres unmarked) [Compound 779, 2′,3′-dideoxy-2′,3′-didehydrothymidine-5′-(2,3,4,5,6-pentafluorophenyl-N-methylalaninyl) phosphoramidate]: in data set [1], the “Selectivity CC50/EC50 × 10^3” value is 1.25 × 10^3. For the same compound, the EC50 in data set [1] worked out at 0.064 µM; in data set [3] (setting [10]), 1.72 µM; in data set [4] (setting [10]), 4.01 µM; in data set [6] (setting [10]), 2.5 µM; in [7] (setting [10]), 3.7 µM; in data set [8] (setting [11]), 8.5 µM. The CC50 in data set [2] stood at 80 µM; in data set [5] (setting [10]), 82 µM; in data set [9], 115 µM.
In the case of `COC(=O)C(Cc1ccccc1)NP(=O)(OC[C@@H]1C=C[C@H](n2cc(C)c(=O)[nH]c2=O)O1)Oc1ccccc1` (some centres unmarked) [Compound 863, 2′,3′-dideoxy-2′,3′-didehydrothymidine-5′-(phenyl N-methoxy-phenylalaninyl) phosphoramidate], in data set [1], the “Selectivity CC50/EC50 × 10^3” value is 31.2 × 10^3. The EC50 in data set [1] was determined as 0.016 µM; in [3] (setting [10]) it was 0.2 µM; in data set [4] (setting [10]) it was 0.4 µM; in data set [6] (setting [10]) it was 0.8 µM; in [7] (setting [10]) it was 1.35 µM; in data set [8] (setting [11]) it was 0.33 µM. In addition, the half-maximal cytotoxic concentration (CC50) was determined as 500 µM in [2], 34 µM in data set [5] (setting [10]) and 216 µM in data set [9].
Regarding `COC(=O)C(CC(C)C)NP(=O)(OCC1C=CC(n2cc(C)c(=O)[nH]c2=O)O1)Oc1ccccc1` (centres unmarked) [Compound 864, 2′,3′-dideoxy-2′,3′-didehydrothymidine-5′-(phenyl N-methoxy-leucinyl) phosphoramidate], the “Selectivity CC50/EC50 × 10^3” value in [1] was >62.5 × 10^3. Further, the EC50 in [1] came to 0.016 µM; in data set [3] (setting [10]) it was 0.2 µM; in data set [4] (setting [10]), 0.5 µM; in data set [6] (setting [10]), 1.1 µM; in [7] (setting [10]), 2.23 µM; in data set [8] (setting [11]) it was 0.4 µM. Besides, the cytotoxic concentration (CC50) in data set [2] was over 1000 µM; in data set [5] (setting [10]), 62 µM; in data set [9], at least 250 µM.
For the compound `COC(=O)C(NP(=O)(OCC1C=CC(n2cc(C)c(=O)[nH]c2=O)O1)Oc1ccccc1)C(C)C` (centres unmarked) [Compound 865, 2′,3′-dideoxy-2′,3′-didehydrothymidine-5′-(phenyl N-methoxyvalinyl) phosphoramidate], the “Selectivity CC50/EC50 × 10^3” value in [1] is on record as >1.25 × 10^3. For the same compound, the EC50 came to 0.8 µM in data set [1]; 3.6 µM in data set [3] (setting [10]); 11.2 µM in data set [4] (setting [10]); 12.5 µM in data set [6] (setting [10]); 12.5 µM in data set [7] (setting [10]); 4 µM in data set [8] (setting [11]). For the same compound, the CC50 is over 1000 µM in [2], at least 250 µM in data set [5] (setting [10]) and over 250 µM in data set [9].
As for `Cc1cn(C2CC(N=[N+]=[N-])C(CO)O2)c(=O)[nH]c1=O` (centres unmarked) [Cpd 499], the EC50 in data set [3] (MT4 cells, HIV-1) was 0.9 µM; in data set [4] (MT4 cells, HIV-2), 2.3 µM; in data set [6] (CEM cells, HIV-1), 3 µM; in data set [7] (CEM cells, HIV-2), 4 µM; in data set [8] (setting [12]), over 250 µM. For the same compound, in [5] (MT-4 cells), the 50% cytotoxic concentration (CC50) was over 250 µM.

For orientation: CC50 means the concentration that lowers cell viability or growth by half.
